Assay results from patent publication US12352763B2, “Method of determining autophagosome flux and uses thereof” (Stellenbosch University, priority 2016, dated 2025).

How the values were obtained:
[1] = tested on: MEF cells; assay: Autophagosome flux assay: live-cell z-stack fluorescence imaging of GFP-LC3 / LysoTracker Red cells, with fusion blocked by 400 nM bafilomycin A1; format: cell-based, mouse
Description: For the autophagosomal pool size analysis, the autophagosomes and the lysosomes were visualized and labelled specifically. The autophagolysosomal entities were identified by co-localization analysis. Stably transfected green fluorescent protein-LC3 (GFP-LC3) cells were treated with the lysosome-labelling marker, LysoTracker® Red (Life Technologies, #L-7528) in order to visualize the autophagosomes, the lysosomes and the autophagolysosomes. MEF cells were seeded onto a sterile cover-slip patterned with large fibronectin discs (CYTOO, #10-003-10) in a CYTOO chamber single well plate. Cells were seeded at a density of 2×10^4 cells and incubated for 30 minutes. Thereafter, the chamber was rinsed several times using DMEM until all adherent cells in the non-patterned regions were washed off. The cells were maintained for 2 hours prior to the experiment in DMEM, containing 75 nM LysoTracker Red, in a humidified atmosphere in the presence of 5% CO2 at […]. The chamber plate was then enclosed in an Olympus IX-81 stage of an inverted fluorescence microscope in the presence of 5% CO2 for the duration of the experiment. Serum starvation was avoided, since it would upregulate autophagosome flux and mask the cell-inherent basal autophagosome flux.
Z-stack image acquisition was performed in order to acquire the complete autophagosomal pool size. An Olympus IX-81 coupled to an MT-20 and xenon burner 150 W and an F-view camera were employed. Temperature and 5% CO2 were controlled. For live cell acquisition, single cell acquisition was performed using automated stage coordinate settings. CellR-based software (Olympus, Soft Imaging) was employed. Images were processed using Cell R imaging software and exported to the modified (for high throughput) automated counting software (ImageJ with WatershedCounting3D plug in (Gniadek et al., 2007)), to count the green and red puncta using voxel dimension 0.08 for both x and y as the search parameters. Puncta count and morphometric analysis were performed using the Watershed Counting3D plugin of ImageJ. Images were converted to RGB colour format and processed by WatershedCounting3D. Puncta count and surface area were determined for each colour puncta from the output file generated. Equations 1, 2 and 3 described above were used to determine the radius, volume and total surface area of spheres.
In order to assess the basal autophagosome flux in steady state, cells were treated with 400 nM bafilomycin A1 (FIG. 4). The autophagosomal pool size was monitored for two hours post-inhibition and images were acquired at 30 minute intervals. The basal flux, Jbasal, was determined by allowing the autophagic system to reach a steady state under basal conditions (basal flux is the initial slope of the progress curve at the point of inhibition of fusion). Multiple cells (n=10) were assessed simultaneously using a stage control. The transition time, τ, was calculated from the ratio τ=nA/J of the autophagosome pool size and autophagosome flux, and indicated the turnover time of the autophagosome pool at steady state.
The autophagosome flux J, the autophagosomal pool size nA, and the autophagosomal transition time τ were determined (FIG. 6 and Table 1).

[2] = tested on: mouse embryonic fibroblast (MEF) cells; assay: Determining complete fusion inhibition: saturating inhibitor concentration, Western blot; format: cell-based
From the text: FIG. 2 is a Western blot analysis and corresponding graphs illustrating the results of the study to determine the saturating inhibitor concentration of bafilomycin A1 required to fully block autophagosomal/lysosomal fusion.
This saturating concentration should be determined prior to performing the method. […] Although this can be performed through Western blot analysis, a more precise technique is to determine the change over time of the autophagosome pool size after inhibition of fusion using the method of the present invention (FIG. 2). Thus, the change in pool size before and shortly after inhibition of fusion is determined and the rate of change (typically expressed over 1 hour) is calculated.
Bafilomycin A1 was selected as the inhibitor in this example because it is the most commonly used drug in the field.

[3] = tested on: LC3, p62 and pmTOR; assay: Western blot analysis probing for LC3, p62 and pmTOR (validation); format: cell-based; settings: treatment with bafilomycin
Description: FIG. 8 is a Western blot analysis probing for LC3, p62 and pmTOR. […] This method, however, cannot measure dynamic changes and vesicular pool size required to measure autophagosome flux. […] Western blot analysis and TEM was performed in the presence and absence of bafilomycin A1. […] Therefore, autophagosome flux cannot be accurately assessed. It allows the detection of the respective protein, LC3 II, from a whole cell population, without linking the protein band signal to single cell pool sizes of entities. Moreover, the nature of Western blot analysis omits any measurements of dynamic changes (FIG. 8).

[4] = 25 nM rapamycin versus basal, increase

Row | SMILES | Transition time, % change (% Δ) ([1]; 25 nM rapamycin versus basal, decrease) | Autophagosome Pool size nA, % change (% Δ) [1, 4] | Autophagosome flux J, % change (% Δ) [1, 4] | Autophagolysosomal transition time, τAL ([1]; induced with rapamycin) | Autophagosomal membrane flux, Jmem ([1]; induced with rapamycin) | Cytoplasmic volume consumption rate, Jvol ([1]; induced with rapamycin) | Autophagosome flux, J ([1]; induced with rapamycin (25 nM)) | Average volume of an autophagosome ([1]; induced with rapamycin (25 nM)) | Number of autophagolysosomes, nAL ([1]; induced with rapamycin (25 nM)) | Number of autophagosomes, nA ([1]; induced with rapamycin (25 nM)) | Autophagosomal transition time, τA ([1]; induced with rapamycin, τ=nA/J) | Autophagosome Pool size nA ([1]; modulator rapamycin (Table 2)) | Autophagosome flux, J ([1]; modulator rapamycin (Table 2)) | Transition time ([1]; modulator rapamycin (Table 2)) | Autophagosome Pool size nA, net change (Δ) ([1]; rapamycin versus basal) | Autophagosome flux J, net change (Δ) ([1]; rapamycin versus basal) | Transition time, net change (Δ) ([1]; rapamycin versus basal, decrease) | Inhibition of autophagosomal-lysosomal fusion ([2]; 400 nM for 2 hours) | Cell toxicity ([2]; concentration of 800 nM) | LC3II and p62 bands [3]
1 | CO[C@H]1C[C@@H]2CC[C@@H](C)[C@@](O)(O2)C(=O)C(=O)N2CCCC[C@H]2C(=O)O[C@H]([C@H](C)C[C@@H]2CC[C@@H](O)[C@H](OC)C2)CC(=O)[C@H](C)/C=C(\C)[C@@H](O)[C@@H](OC)C(=O)[C@H](C)C[C@H](C)/C=C/C=C/C=C/1C [rapamycin] | 69.8% | 22.4% | 315% | 2.4 h | 8268 μm^2/hr/cell | 495 fL/hr/cell | 105.4 A/hr/cell | 4.7 fL | 251.2 AL/cell | 16.7 A/cell | 0.16 h | 16.4 No. of autophagosomes | 105.4 No. of autophagosomes/cell*hr^1 | 0.16 h | 3 No. of autophagosomes | 80 No. of autophagosomes/cell*hr^1 | 0.37 h |  |  | 
2 | CO/C1=C\C(C)=C\[C@@H](C)[C@@H](O)[C@@H](C)C/C(C)=C/C=C/[C@H](OC)[C@@H]([C@@H](C)[C@@H](O)[C@H](C)[C@@]2(O)C[C@@H](O)[C@H](C)[C@@H](C(C)C)O2)OC1=O [Bafilomycin A1] |  |  |  |  |  |  |  |  |  |  |  |  |  |  |  |  |  | complete inhibition | cell toxicity was observed | increases
